Laboratory results published in patent publication US5770565A, “Peptides for reducing or inhibiting bone resorption” (priority 1994, dated 1998).
Where a SMILES comes first, the peptide text is derived from it. Bridges are numbered along the chain shown (N, C = ends).

Key:
chick osteoclasts = experiment: chick osteoclast / total cell detachment assay; type: cell-based; settings: FIG. 5
Description: Peptides were evaluated for their ability to detach osteoclasts from a matrix consisting of serum-coated microtiter plates. In prescreening assays, 5 μM of the various RGD peptides was used to identify RGD peptides that released at least 60% of the osteoclasts from the matrix.
Osteoclasts were isolated from embryonic chicks using a modification of the methods of Boyde et al., Br. Dent. J. 156:216 (1984) and Chambers et al., Endocrinology 116:234 (1985), each of which is incorporated herein by reference. […]
The cells were incubated for 90 min at 37° C. in an atmosphere containing 10% CO2. […] Cell layers were stained for 5 min using 0.1% crystal violet and multinucleated osteoclasts were counted by light microscopy. […]
RGD peptides that are selective for releasing osteoclasts, but not the other cell types, from the matrix were identified by extracting the crystal violet stain from fixed cells and comparing the amount of staining in a control well (no peptide) with the amount of staining following incubation of the cells with an RGD peptide. Crystal violet was extracted using 20% acetic acid and the optical density of the resulting solution was measured in 96 well microtiter plates by spectrophotometry at 562 nm. […]

Swiss-Webster mice = experiment: PTH-induced hypercalcemia assay; type: in vivo; settings: single dose, infused 4 hr after PTH
Description: Parathyroid hormone (PTH) activates osteoclasts, which are involved in bone resorption. Associated with the increased osteoclast activity is an increase in serum calcium. The PTH-induced hypercalcemia assay measures the level of serum calcium, which is an indication of bone resorption in a subject (Fischer et al., Endocrinology 132:1411-1413 (1993), which is incorporated herein by reference).
Swiss-Webster mice, which had been parathyroidectomized two weeks prior to beginning the assay, were obtained from Taconic Lab Animals and Services (Germantown N.Y.). Femoral vein catheters (PE-50 fused with PE10 polyethylene tubing; Becton Dickinson; Parsippany, N.J.) were installed in the mice, flushed and locked with heparinized saline (1:10), sutured to adjacent muscle and internalized within the inguinal space of the incision before closing the incision with wound clips. […]
The experiment was initiated by feeding the mice a calcium-deficient diet overnight, then injecting the mice the following morning with a bolus of 0.2 mg PTH/kg (hPTH 1-34; Bachem; Torrance Calif.), intravenously. […] Various doses of a peptide or vehicle were infused into an animal for 4 hr, then ionized serum calcium again was measured. […] Serum calcium measurements were expressed as the difference between the value 30 min before the PTH pulse and 4 hr after peptide infusion was started. […]

[1] = test system: αV β3 integrin, osteoclasts; experiment: series of assays of Example II for potency and selectivity (summary, FIG. 2)
Description: Peptides of the RGDNTic (SEQ ID NO: 56) pharmacophore group are characterized, in general, as having increased potency, whereas the peptides of the pharmacophore RGDDV (SEQ ID NO: 1) group generally have higher receptor selectivity. […] As used herein, the term "potency" or "potent" means that a peptide of the invention is active at a relatively low concentration in the assays described in Examples II and III. A potent peptide of the invention can be identified, for example, using the assays described in Examples II and III.
Selectivity can be due, for example, to the ability of a peptide of the invention to bind to αV β3 with greater affinity than it binds to other integrins. Thus, in addition to having selectivity, for example, for osteoclast binding to a matrix, a peptide of the invention also can display receptor selectivity and, therefore, more specifically alter receptor-mediated binding to a matrix. As used herein, the term "receptor selectivity" means that a peptide of the invention can bind to one receptor with greater affinity than it can bind to another receptor.

rat osteoclasts = experiment: rat osteoclast attachment assay compared with MG63 or NRK cell attachment; type: cell-based; settings: FCS substrate, FIGS. 7 and 8
Description: To determine the effect of a peptide on the attachment of rat osteoclasts in vitro, 100 μl aliquots of the rat pup bone cell suspension described in Example II.B.2., above, were added in triplicate to 96 well "MAXISORP" plates coated with specific substrates or with FCS. Substrate coated plates were used to determine the ability of peptides to inhibit attachment or induce detachment of an osteoclast from a ligand such as vitronectin, fibronectin, osteopontin or collagen I (Collaborative Research), which are ligands present in bone. Substrates were added to 96 well plates (50 μl of a 5-10 μg/ml solution in sodium carbonate, pH 9.5) and incubated for 2 hr at 37° C. For FCS control wells, 100 μl 10% FCS was added. Wells were aspirated, then washed 2×with PBS and blocked with 1% bovine serum albumin in PBS for 2 hr at 37° C. Wells were aspirated and washed again 2× with PBS. Cells were seeded in duplicate at 4×10^4 cells/well. […]
Following incubation, the medium and nonadherent cells were removed by aspiration from each well. […] Adherent osteoclasts were counted by light microscopy. […]
MG63 and NRK cell lines were purchased from ATTC (Rockville Md.). […] Following staining, the stain was extracted with 20% acetic acid and the OD562 of the extracted stain was determined. […]
Selectivity of a peptide can be determined by comparing the results of FIGS. 7 and 8 (see, also FIG. 2).

CC(C)[C@@H]1NC(=O)[C@H](CC(=O)O)NC(=O)[C@H](CC(=O)O)NC(=O)CNC(=O)[C@H](CCCNC(=N)N)NC(=O)CC[C@@H](C(N)=O)NC1=O [peptide 386, RGDDVE-NH2] (RGDDVE-NH2; lactam N-6)
selective detachment of osteoclasts as compared to other cell types (chick osteoclasts): selective detachment of osteoclasts | serum calcium level (Swiss-Webster mice): relatively low level of serum calcium | potency and selectivity together (summary classification) [1]: both potent and selective | receptor selectivity (summary classification) [1]: particularly receptor selective | activity of peptides with minimally essential elements ([1]; FIG. 2): demonstrate activity | selectivity: osteoclast attachment versus MG63 or NRK attachment (rat osteoclasts): selective
